Earlier results on one compound are cited in patent publication EP2933251A1, “PHARMACEUTICAL COMPOSITION USABLE FOR THE TREATMENT OF A PATHOLOGY OF THE FOOT OF A HOOFED MAMMAL” (Weyts, Peter, priority 2014, dated 2015).

The subject of the data set is vaisseaux sanguins du sabot du cheval. The settings on record: as stated in WO 2006/100468 A1.

For `CC(=O)N[C@@H](CS)C(=O)O` [N-acétylcystéine], the “contraction des vaisseaux sanguins du sabot du cheval” value is recorded as “permet de réduire la contraction des vaisseaux sanguins du sabot du cheval”.
